Data from patent US20100197727A1, “Quinoline Derivatives as Antibacterial Agents” (priority 2005, published 2010).

What was measured:
Test in all cases: Microtitre plate assay, IC90 determination
Format in all cases: cell-based
Details in all cases: 90% inhibitory concentration for bacterial growth
[1] = test system: Staphylococcus aureus (ATCC29213)
Experimental: (§1) The bacteria used in this study were grown overnight in flasks containing 100 ml Mueller-Hinton Broth (Becton Dickinson—cat. no. 275730) in sterile de-ionized water, with shaking, at 37° C. Stocks (0.5 ml/tube) were stored at −70° C. until use. Bacteria titrations were performed in microtiter plates and colony forming units (CFUs) were determined In general, an inoculum level of approximately 100 CFUs was used for susceptibility testing.
(§2) Flat-bottom, sterile 96-well plastic microtiter plates were filled with 180 μl of sterile deionized water, supplemented with 0.25% BSA. Subsequently, stock solutions (7.8× final test concentration) of compounds were added in 45 μl volumes in column 2. Serial five-fold dilutions (45 μl in 180 μl ) were made directly in the microtiter plates from column 2 to reach column 11. Untreated control samples with (column 1) and without (column 12) inoculum were included in each microtiter plate. Depending on the bacteria type, approximately 10 to 60 CFU per well of bacteria inoculum (100 TCID50), in a volume of 100 μl in 2.8× Mueller-Hinton broth medium, was added to the rows A to H, except column 12. The same volume of broth medium without inoculum was added to column 12 in row A to H. The cultures were incubated at 37° C. for 24 hours under a normal atmosphere (incubator with open air valve and continuous ventilation). At the end of incubation, one day after inoculation, the bacterial growth was quantitated fluorometrically. Therefore resazurin (0.6 mg/ml) was added in a volume of 20 μl to all wells 3 hours after inoculation, and the plates were re-incubated overnight. A change in colour from blue to pink indicated the growth of bacteria. The fluorescence was read in a computer-controlled fluorometer (Cytofluor Biosearch) at an excitation wavelength of 530 nm and an emission wavelength of 590 nm. The % growth inhibition achieved by the compounds was calculated according to standard methods. The IC90 (expressed in μg/ml) was defined as the 90% inhibitory concentration for bacterial growth.

[2] = test system: Bacillus subtilis (ATCC43639)
Experimental: as §1, §2

[3] = test system: Enterococcus faecalis (ATCC14506)
Experimental: as §1, §2

[4] = test system: Enterococcus faecalis (ATCC29212)
Experimental: as §1, §2

[5] = test system: Escherichia coli (ATCC25922)
Experimental: as §1, §2

[6] = test system: Listeria monocytogenes (ATCC49594)
Experimental: as §1, §2

[7] = test system: Pseudomonas aeruginosa (ATCC27853)
Experimental: as §1, §2

[8] = test system: Staphylococcus aureus (ATCC25923)
Experimental: as §1, §2

[9] = test system: Staphylococcus aureus (ATCC43300)
Experimental: as §1, §2

[10] = test system: Streptococcus mutans (ATCC33402)
Experimental: as §1, §2

[11] = test system: Streptococcus pneumoniae (ATCC6305)
Experimental: as §1, §2

[12] = test system: Streptococcus pyogens (ATCC8668)
Experimental: as §1, §2

[13] = test system: methicilline resistant Staphylococcus aureus (MRSA) (a clinical isolate from the University of Antwerp)
Experimental: as §1, §2

[14] = test system: Escherichia coli (ATCC35218)
Experimental: as §1, §2

SMILES	IC90 STA 29213 [1]	IC90 EFA 29212 [4]	IC90 PAE 27853 [7]	IC90 SPN 6305 [11]	IC90 SPY 8668 [12]	also measured
COc1nc2ccc(Br)cc2cc1C(c1ccccc1)C(O)(CCCC[N+](C)(C)C)c1ccccc1.[I-] (single isomer, unassigned) [Compound K]	2.1 µg/mL					
COc1nc2ccc(Br)cc2cc1C(c1ccccc1)C(O)(CC[N+](C)(C)C)c1cccc2ccccc12.[I-] (single isomer, unassigned) [Compound 121]	0.4 µg/mL	2.8 µg/mL	13.9 µg/mL	3.5 µg/mL	3.5 µg/mL	IC90 BSU 43639 [2]: 2.8 µg/mL; IC90 EFA 14506 [3]: 2.8 µg/mL; IC90 ECO 25922 [5]: 12.4 µg/mL; IC90 LMO 49594 [6]: 0.5 µg/mL; IC90 STA 25923 [8]: 2.2 µg/mL; IC90 STA 43300 [9]: 3.5 µg/mL; IC90 SMU 33402 [10]: 2.8 µg/mL; IC90 STA RMETH [13]: 2.2 µg/mL
COc1nc2ccc(Br)cc2cc1C(c1ccccc1)C(O)(CCC[N+](C)(C)C)c1cccc2ccccc12.[I-] (single isomer, unassigned) [Compound G]	0.4 µg/mL					
COc1nc2ccc(Br)cc2cc1C(c1ccccc1)C(O)(CC[N+](C)(C)C)c1ccccc1.[I-] (single isomer, unassigned) [Compound 57]	12.9 µg/mL	12.9 µg/mL		16.3 µg/mL	12.9 µg/mL	IC90 BSU 43639 [2]: 2.6 µg/mL; IC90 EFA 14506 [3]: 12.9 µg/mL; IC90 LMO 49594 [6]: 2.6 µg/mL; IC90 STA 25923 [8]: 12.9 µg/mL; IC90 STA 43300 [9]: 12.9 µg/mL; IC90 SMU 33402 [10]: 12.9 µg/mL; IC90 STA RMETH [13]: 12.9 µg/mL
CCCC[N+](C)(C)CCC(O)(c1cccc2ccccc12)C(c1ccccc1)c1cc2cc(Br)ccc2nc1OC.[I-] (single isomer, unassigned) [Compound C]	0.4 µg/mL					
COc1nc2ccc(Br)cc2cc1C(c1ccc(Cl)cc1)C(O)(CC[N+](C)(C)C)c1ccccc1.[I-] (single isomer, unassigned) [Compound N]	1.8 µg/mL	1.75 µg/mL	9.87 µg/mL	1.75 µg/mL	1.75 µg/mL	IC90 ECO 35218 [14]: 17.55 µg/mL
CSc1nc2ccc(Br)cc2cc1C(c1ccccc1)C(O)(CC[N+](C)(C)C)c1ccccc1.[I-] (single isomer, unassigned) [Compound T]	1.7 µg/mL	3.8 µg/mL	8.5 µg/mL	1.7 µg/mL	1.7 µg/mL	
COc1nc2ccc(Br)cc2cc1C(c1ccccc1)C(O)(CCc1ccccc1)CC[N+](C)(C)C.[I-] (single isomer, unassigned) [Compound F]	2.1 µg/mL					
COc1nc2ccc(Br)cc2cc1C(c1ccccc1)C(O)(CCC[N+](C)(C)C)c1ccc2ccccc2c1.[I-] (single isomer, unassigned) [R]	0.4 µg/mL	1.17 µg/mL	2.07 µg/mL	0.46 µg/mL	0.74 µg/mL	IC90 ECO 35218 [14]: 9.27 µg/mL
COc1nc2ccc(Br)cc2cc1C(c1ccccc1)C(O)(CCCC[N+](C)(C)C)c1ccc2ccccc2c1.[I-] (single isomer, unassigned) [I]	2.9 µg/mL					
COc1nc2ccc(Br)cc2cc1C(c1ccccc1)C(O)(CCC[N+](C)(C)C)c1ccc2ccccc2c1.[I-] (single isomer, unassigned) [Compound S]	0.4 µg/mL	1.85 µg/mL	1.85 µg/mL	0.47 µg/mL	1.85 µg/mL	
COc1nc2ccc(Br)cc2cc1C(c1ccccc1)C(O)(CCc1ccccc1)CC[N+](C)(C)C.[I-] (single isomer, unassigned) [E]	2.1 µg/mL					
CSc1nc2ccc(Br)cc2cc1C(c1ccccc1)C(O)(CCCC[N+](C)(C)C)c1ccccc1.[I-] (single isomer, unassigned) [Compound L]	2.2 µg/mL	2.2 µg/mL	2.2 µg/mL	2.2 µg/mL	0.4 µg/mL	IC90 BSU 43639 [2]: 2.2 µg/mL; IC90 ECO 35218 [14]: 11 µg/mL; IC90 LMO 49594 [6]: 2.2 µg/mL; IC90 SMU 33402 [10]: 0.4 µg/mL
COc1nc2ccc(Br)cc2cc1C(c1ccccc1)C(O)(CCCC[N+]1(C)CCCCC1)c1ccccc1.[I-] (single isomer, unassigned) [Compound U]	1.9 µg/mL	1.86 µg/mL	9.33 µg/mL	2.09 µg/mL	1.86 µg/mL	
COc1nc2ccc(Br)cc2cc1C(c1ccccc1)C(O)(CC[N+](C)(C)C)c1ccsc1.[I-] (single isomer, unassigned) [Compound M]	1.7 µg/mL			8.34 µg/mL	8.34 µg/mL	
COc1nc2ccc(Br)cc2cc1C(c1ccccc1)C(O)(CC[N+](C)(C)C)c1ccccc1.[I-] (single isomer, unassigned) [Compound 10]	14.5 µg/mL	5.8 µg/mL		16.3 µg/mL	1.3 µg/mL	IC90 BSU 43639 [2]: 10.3 µg/mL; IC90 EFA 14506 [3]: 12.9 µg/mL; IC90 LMO 49594 [6]: 1.2 µg/mL; IC90 STA 25923 [8]: 11.5 µg/mL; IC90 STA 43300 [9]: 5.8 µg/mL; IC90 SMU 33402 [10]: 10.3 µg/mL; IC90 STA RMETH [13]: 8.2 µg/mL
COc1nc2ccc(Br)cc2cc1C(c1ccccc1)C(O)(CCCC[N+](C)(C)C)c1ccc2ccccc2c1.[I-] (single isomer, unassigned) [Compound H]	0.5 µg/mL					
COc1nc2ccc(Br)cc2cc1C(c1ccccc1)C(O)(CC[N+](C)(C)C)c1cccc(F)c1.[I-] (single isomer, unassigned) [Compound O]	1.9 µg/mL	8.53 µg/mL		1.7 µg/mL	1.7 µg/mL	
COc1nc2ccc(Br)cc2cc1C(c1ccccc1)C(O)(CC[N+](C)(C)C)c1ccc2ccccc2c1.[I-] (single isomer, unassigned) [Compound Q]	1.8 µg/mL	1.8 µg/mL	4.53 µg/mL	1.8 µg/mL	1.8 µg/mL	
COc1nc2ccc(Br)cc2cc1C(c1ccccc1)C(O)(CCCC[N+](C)(C)C)c1ccccc1.[I-] (single isomer, unassigned) [J]	2.1 µg/mL					
